# From ChEMBL document CHEMBL5360539, “RSK inhibitors as potential anticancer agents: Discovery, optimization, and challenges” (Eur J Med Chem, 2023)
# pIC50: −log10 of the molar value. Structures can show the parent of a compound that is named as a salt.
# Key:
# [1] = biological target: T1, Ribosomal protein S6 kinase alpha-3 (Homo sapiens, UniProt P51812); test: Inhibition of recombinant His-tagged RSK2 (unknown origin) expressed in Sf9 cells
# [2] = biological target: T1, Ribosomal protein S6 kinase alpha-3; test: Inhibition of RSK2 expressed in human MCF7 cells incubated for 1 hrs by; assay type: cell-based
# [3] = biological target: Ribosomal protein S6 kinase alpha-1 (Homo sapiens, UniProt Q15418); test: Inhibition of RSK1 (unknown origin)
# Ribosomal protein S6 kinase alpha-1, sequence (Q15418 whole entry): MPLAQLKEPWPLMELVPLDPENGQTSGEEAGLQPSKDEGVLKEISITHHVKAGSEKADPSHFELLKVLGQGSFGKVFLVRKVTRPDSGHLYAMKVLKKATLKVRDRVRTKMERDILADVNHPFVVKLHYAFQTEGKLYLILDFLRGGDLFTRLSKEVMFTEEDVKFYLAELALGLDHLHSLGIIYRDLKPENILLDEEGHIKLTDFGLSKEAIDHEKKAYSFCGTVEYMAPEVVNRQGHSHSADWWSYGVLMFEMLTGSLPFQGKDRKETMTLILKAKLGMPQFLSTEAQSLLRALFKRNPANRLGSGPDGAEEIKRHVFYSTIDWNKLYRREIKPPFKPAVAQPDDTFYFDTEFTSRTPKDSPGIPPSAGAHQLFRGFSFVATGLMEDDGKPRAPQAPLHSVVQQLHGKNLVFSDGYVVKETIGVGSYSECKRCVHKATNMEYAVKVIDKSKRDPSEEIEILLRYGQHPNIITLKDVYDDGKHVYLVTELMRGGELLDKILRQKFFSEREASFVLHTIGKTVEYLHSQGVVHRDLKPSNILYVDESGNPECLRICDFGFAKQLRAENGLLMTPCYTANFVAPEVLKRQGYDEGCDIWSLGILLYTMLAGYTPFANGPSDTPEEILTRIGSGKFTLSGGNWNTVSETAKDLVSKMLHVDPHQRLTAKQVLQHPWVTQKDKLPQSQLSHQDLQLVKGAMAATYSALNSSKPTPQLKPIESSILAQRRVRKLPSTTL
# [4] = biological target: T1, Ribosomal protein S6 kinase alpha-3; test: Inhibition of RSK2 (unknown origin)
# [5] = biological target: Ribosomal protein S6 kinase alpha-2 (Homo sapiens, UniProt Q15349); test: Inhibition of RSK3 (unknown origin)
# Ribosomal protein S6 kinase alpha-2, sequence (Q15349 whole entry): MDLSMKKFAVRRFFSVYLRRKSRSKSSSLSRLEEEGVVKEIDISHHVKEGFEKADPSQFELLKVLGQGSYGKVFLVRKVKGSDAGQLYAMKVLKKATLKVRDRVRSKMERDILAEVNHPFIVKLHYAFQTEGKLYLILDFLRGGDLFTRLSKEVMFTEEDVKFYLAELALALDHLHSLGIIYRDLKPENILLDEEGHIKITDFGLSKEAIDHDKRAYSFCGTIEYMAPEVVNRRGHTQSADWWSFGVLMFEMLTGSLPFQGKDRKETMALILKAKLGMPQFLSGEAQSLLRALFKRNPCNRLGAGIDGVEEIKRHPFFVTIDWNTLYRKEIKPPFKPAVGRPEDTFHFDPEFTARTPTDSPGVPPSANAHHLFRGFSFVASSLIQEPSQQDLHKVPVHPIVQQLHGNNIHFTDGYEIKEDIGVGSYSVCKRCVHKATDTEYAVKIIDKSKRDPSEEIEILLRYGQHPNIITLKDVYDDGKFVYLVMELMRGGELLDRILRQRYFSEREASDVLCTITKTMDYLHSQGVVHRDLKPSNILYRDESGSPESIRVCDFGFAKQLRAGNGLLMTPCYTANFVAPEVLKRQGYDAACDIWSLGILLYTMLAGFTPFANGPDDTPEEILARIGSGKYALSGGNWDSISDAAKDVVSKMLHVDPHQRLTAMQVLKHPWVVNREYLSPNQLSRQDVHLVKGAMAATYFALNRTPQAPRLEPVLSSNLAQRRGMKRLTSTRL
# [6] = biological target: T1, Ribosomal protein S6 kinase alpha-3; test: Inhibition of wild type RSK2 (unknown origin)
# [7] = Inhibition of recombinant N-terminal RSK (unknown origin) expressed in Sf21 cells; parameters: species or system Homo sapiens
# [8] = biological target: Ribosomal protein S6 kinase alpha-6 (Homo sapiens, UniProt Q9UK32); test: Inhibition of RSK4 (unknown origin)
# Ribosomal protein S6 kinase alpha-6, sequence (Q9UK32 whole entry): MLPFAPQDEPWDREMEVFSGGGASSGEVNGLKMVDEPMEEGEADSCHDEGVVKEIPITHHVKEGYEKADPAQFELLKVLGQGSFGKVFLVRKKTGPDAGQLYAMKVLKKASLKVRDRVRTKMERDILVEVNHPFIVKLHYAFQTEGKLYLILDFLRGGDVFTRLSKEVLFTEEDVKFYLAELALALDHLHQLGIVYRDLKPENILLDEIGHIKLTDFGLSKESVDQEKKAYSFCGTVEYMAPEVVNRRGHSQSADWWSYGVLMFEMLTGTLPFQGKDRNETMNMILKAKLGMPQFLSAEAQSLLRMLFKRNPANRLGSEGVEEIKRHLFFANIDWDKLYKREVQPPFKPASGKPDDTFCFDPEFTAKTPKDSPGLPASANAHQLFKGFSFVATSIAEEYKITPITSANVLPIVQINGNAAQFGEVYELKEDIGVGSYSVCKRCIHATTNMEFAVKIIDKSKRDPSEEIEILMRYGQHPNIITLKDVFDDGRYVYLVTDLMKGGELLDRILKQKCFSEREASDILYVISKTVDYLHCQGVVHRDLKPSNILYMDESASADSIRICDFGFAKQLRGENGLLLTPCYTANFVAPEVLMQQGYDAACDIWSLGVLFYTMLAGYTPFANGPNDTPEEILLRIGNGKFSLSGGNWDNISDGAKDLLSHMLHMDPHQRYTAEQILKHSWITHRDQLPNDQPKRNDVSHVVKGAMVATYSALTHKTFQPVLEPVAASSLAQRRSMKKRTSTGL
# [9] = biological target: T1, Ribosomal protein S6 kinase alpha-3; test: Inhibition of human recombinant RSK2
# T1 sequence (P51812 whole entry): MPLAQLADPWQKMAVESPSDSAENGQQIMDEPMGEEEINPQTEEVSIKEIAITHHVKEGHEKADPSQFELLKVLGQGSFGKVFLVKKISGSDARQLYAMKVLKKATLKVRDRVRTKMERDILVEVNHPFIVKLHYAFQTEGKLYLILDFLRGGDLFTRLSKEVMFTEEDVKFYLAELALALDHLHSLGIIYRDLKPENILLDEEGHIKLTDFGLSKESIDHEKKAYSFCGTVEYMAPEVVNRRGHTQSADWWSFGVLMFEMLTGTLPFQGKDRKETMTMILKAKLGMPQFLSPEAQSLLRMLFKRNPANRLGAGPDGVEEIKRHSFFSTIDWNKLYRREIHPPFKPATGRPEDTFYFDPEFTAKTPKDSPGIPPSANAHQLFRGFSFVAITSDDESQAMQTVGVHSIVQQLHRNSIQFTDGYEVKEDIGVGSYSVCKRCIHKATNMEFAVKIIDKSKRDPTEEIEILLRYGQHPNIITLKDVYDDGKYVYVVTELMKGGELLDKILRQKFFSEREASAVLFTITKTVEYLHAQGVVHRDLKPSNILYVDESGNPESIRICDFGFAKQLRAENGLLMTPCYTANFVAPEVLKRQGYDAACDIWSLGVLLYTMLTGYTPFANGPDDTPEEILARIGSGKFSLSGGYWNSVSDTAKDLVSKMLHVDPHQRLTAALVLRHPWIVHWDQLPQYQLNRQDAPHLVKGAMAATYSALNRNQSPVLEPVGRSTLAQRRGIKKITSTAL
structure (smiles),measurement,setting,value
CCC[C@@H]1C[C@@H](Oc2c(-c3ccc(O)cc3)oc3cc(O)cc(O)c3c2=O)[C@H](O)[C@H](OC(C)=O)[C@H]1OC(C)=O,pIC50,[1],6.06
O=C1C[C@@H](c2ccc(O)c(O)c2)Oc2cc(O)cc(O)c21 [ERIODICTYOL],pIC50,[2],5.32
Cn1cc(C2=C(c3cn(CCCSC(=N)N)c4ccccc34)C(=O)NC2=O)c2ccccc21 [BISINDOLYLMALEIMIDE IX],pIC50,[3],6.70
O=C1Nc2ccccc2/C1=C1/Nc2ccccc2/C1=N\O,pIC50,[3],7.00
CCCNC(=O)O[C@H]1[C@H](CCC)C[C@@H](Oc2c(-c3ccc(O)cc3)oc3cc(O)cc(O)c3c2=O)[C@H](O)[C@@H]1OC(=O)NCCC,pIC50,[1],6.06
CN(C)CCCn1cc(C2=C(c3c[nH]c4ccccc34)C(=O)NC2=O)c2ccccc21 [GF-109203],pIC50,[3],6.21
O=C1c2ccccc2-c2c(NCCc3ccccc3)c(=O)[nH]c3cccc1c23,pIC50,[3],5.82
same,pIC50,[4],5.62
same,pIC50,[5],5.92
Cc1ccc(-c2c(C(=O)CCl)n(CCCO)c3ncnc(N)c23)cc1,pIC50,[6],7.82
CC(C)CCN1c2nc(Nc3cc(F)c(O)c(F)c3)ncc2N(C)C(=O)C1C (stereo unspecified),pIC50,[7],8.00
CCCNC(=O)O[C@@H]1[C@@H](OC(C)=O)[C@@H](O)[C@H](Oc2c(-c3ccc(O)cc3)oc3cc(O)cc(O)c3c2=O)O[C@H]1CCC,pIC50,[8],5.21
CC(C)=CCC1=C(O)C(=O)c2ccccc2C1=O [LAPACHOL],pIC50,[4],5.70
COC(=O)/C=C/C(=O)OC [DIMETHYL FUMARATE],pIC50,[9],3.65
CC(=O)O[C@@H]1[C@@H](OC(C)=O)[C@@H](O)[C@H](Oc2c(-c3ccc(O)cc3)oc3cc(O)cc(O)c3c2=O)O[C@H]1C,pIC50,[3],7.05
Cn1cc(C2=C(c3ccc(Cl)cc3Cl)C(=O)NC2=O)c2ccccc21 [SB-216763],pIC50,[3],7.00
